Assay results taken from patent US6838249B2, “Neuroblastoma cell lines expressing the α2δ subunit of calcium channels and methods therefore” (priority 2001, dated 2005).
Read-outs that look alike come from different tables or passages of the source.

Legend:
[1] = tested on: IMR32 cells; assay: Differentiation of IMR32 cells with BrdU, density of [^3H]GBP binding sites; type: cell-based, human; conditions: 10 μM BrdU for 10 to 12 days
Description: IMR32 cells, SK-N-MC cells and NG 108 cells as well as cells treated in culture with 10 μM of BrdU for 10 to 12 days were used. Cells were harvested and homogenates were made in HEPES/KOH buffer, pH 7.4. The homogenates were centrifuged for 15 min at 1000×g, and the supernatants were centrifuged at 40000×g for 15 min to obtain cell membranes.

[2] = tested on: α2δ subunit of calcium channels; conditions: 10 nM [^3H]GBP; for Ki: one-site binding model

| SMILES | expression of [^3H]GBP binding sites [1] | inhibition of [^3H]GBP binding to IMR32 cell membranes ([2]; varying concentrations (FIG. 3)) | Ki ([2]; read-out: Ki (nM) BrdU, differentiated (BrdU) IMR32 cell membranes) [nM] | Ki ([2]; read-out: Ki (nM) Control, undifferentiated (Control) IMR32 cell membranes) [nM] |
| --- | --- | --- | --- | --- |
| O=c1[nH]c(=O)n([C@H]2C[C@H](O)[C@@H](CO)O2)cc1Br [BrdU, 5-Bromo-2′-deoxyuridine] | increased |  |  |  |
| CSCC[C@H](N)C(=O)O [L-methionine] |  | dose-dependently inhibited | 30 | 39 |
